The text below walks through data of patent publication US20250134928A1, “METHODS FOR IDENTIFYING AND USING ALLOGENEIC TUMOR INFILTRATING LYMPHOCYTES TO TREAT CANCER” (OBSIDIAN THERAPEUTICS, INC., priority 2022, published 2025).

The test relates to regulated mbIL15 TILs. The test can be described thus: ACZ dose response of IL15 expression and signaling, phospho-flow cytometry. The test is classed as cell-based, human. The note with it: 18 hours, 0.1-100 μM ACZ. How it is done:
Pre-REP TILs were prepared similarly to the methods of Example 1-3 and 9, and unengineered and mbIL15 TIL generated accordingly as described in Examples 1-3 and 9. Engagement of the IL15 signaling pathway results in phosphorylation of signal transducers downstream, including the transcription factor protein STAT5 and ribosomal protein S6. […] Next, the regulated mbIL15 TILs were regulated for 18 hours in the presence of a range of concentrations of ACZ including 0.1, 1, 2.5, 5, 10, 25, 100 μM, as well as vehicle control. The regulated mbIL15 TILs were then collected for staining and FACS analysis.
Briefly, cells were stained using antibodies for CD3, CD4, CD8, IL15 and a Live/Dead marker. Then cells were fixed in 2% formaldehyde (BD Cytofix) and permeabilized using a methanol-based buffer (BD Phospho Perm III Buffer) before staining with antibodies specific for phosphorylated STAT5 (Biolegend) and S6 (Cell Signaling Technology). Cells were acquired on the BD Symphony and analyzed using FlowJo software.
For orientation: In flow cytometry, cells or beads pass a laser one at a time.

Each structure is given as a SMILES string.

For the compound `CC(=O)Nc1nnc(S(N)(=O)=O)s1` [ACZ, acetazolamide], the “staining intensity of pSTAT5 and pS6” value is listed as “increased with higher concentrations of ACZ”. Besides, under “four donors”, the “ACZ concentration at which mbIL15 expression plateaus” value lay in the range of 10 to 25 µM.
